Results taken from patent US20080085889A1, “Amidomethyl-Substituted 1-(Carboxyalkyl) Cyclopentyl-Carbonylamino-Benzazepine-N-Acetic Acid Compounds, Process and Intermediate Products for Their Preparation and Pharmaceutical Compositions Containing Them” (SOLVAY PHARMACEUTICALS GmbH, priority 2003, published 2008).

Experiments:
[1] = tested on: formation of ET-1 from Big-ET-1; assay: In vivo inhibition of the Big-ET-1-induced blood pressure increase in anaesthetised rats, i.v. single dose; parameters: species or system Rats (Sprague-Dawley); details: Rattus norvegicus, iv, 5 min before 0.5 nmol/kg Big-ET-1, negative values indicate inhibition, read-out: % substance-related inhibition of the maximum Big-ET effect on SAP vs. control; for change in vivo at 10 µmol/kg: 10 μmol/kg; for change in vivo at 3 µmol/kg: 3 μmol/kg
Source text: 3. In Vivo Investigation of the Inhibitory Action of the Substances on the Formation of ET-1 from Big-ET-1 in Rats
ET-1 is an endogenous substance with strong vasoconstrictive effect. An increase in the ET-1 level results in an increase in blood pressure. Upon infusion of Big-ET-1, an increase in blood pressure takes place to the extent that ET-1 is produced therefrom by enzyme-catalysed cleavage of Big-ET-1. As a measurement of the enzyme-inhibiting action of the substances, their inhibitory action on the increase in blood pressure induced by infusion of Big-ET-1 was determined.
Rats (Sprague-Dawley, CRLD=Charles River) were anaesthetised with 1 ml/kg Rompun/Ketavet 1:1. A pressure transducer (Statham) was inserted into the carotid artery to measure blood pressure. One jugular vein was cannulated for administering the substance, and the other for administering Big-ET-1. After a 20-minute equilibration phase, the rats were administered the corresponding test substance of Formula I at a dose of as a rule 10 μmol/kg (if not stated otherwise), or a vehicle. Five minutes later, 0.5 nmol/kg Big-ET-1 was infused over a period of one minute. The systolic (SAP=systolic arterial pressure) and the diastolic (DAP=diastolic arterial pressure) blood pressure and the heart rate were each measured before administration of the substance, then immediately before administration of Big-ET and in each case every five minutes over a period of 30 minutes after Big-ET administration using the pressure transducer in known manner. The maximum Big-ET-induced increase in blood pressure and the maximum lowering of heart rate were calculated from the measured values as the difference between the value measured at the moment of maximum development of the Big-ET action (typically after 5 min.) and the value measured before Big-ET infusion. Furthermore, the integral of the blood pressure curve under the influence of Big-ET-1 was determined over 30 minutes (AUC=area under the curve).
The percentage inhibition of the maximum Big-ET-1 effect on the systolic arterial blood pressure (SAP) after i.v. administration of the test substances compared with administration of a vehicle is set forth in the following Table 3a:
Data given in table 3a as negative values indicate an inhibitory effect.

[2] = target: T1, soluble, human recombinant NEP (Homo sapiens, UniProt P08473); assay: In-vitro investigation of the NEP inhibitory action (fluorescence-quenched Big-ET-1 analogue, HPLC); format: biochemical
T1 construct: soluble, human recombinant NEP; purchased Prof; Crine, University of Montreal, Canada
Experimental: 1. In-Vitro Investigation of the NEP Inhibitory Action of the Substances
In this test, the measure of the inhibitory activity of the substances which was determined was their IC50 value. The IC50 value of a test substance having enzyme-inhibitory activity is that concentration of the test substance at which 50% of the enzymatic activity of the NEP is blocked.
70 μl test buffer, 10 μl enzyme working solution and 10 μl test substance solution were mixed in an Eppendorf vessel and preincubated at 37° C. for 15 minutes (=min.). Then 10 μl substrate stock solution was added and the test batch was incubated for 60 minutes at 37° C. The enzymatic reaction was then ended by 5-minutes' heating to 95° C. After centrifugation (Heraeus Biofuge B, 3 min.), the liquid supernatant was investigated by HPLC in accordance with the following specifications.
The substrate was separated from cleavage products by means of reversed-phase HPLC (CC 125/4 Nucleosil 300/5 C18 RP column with CC 8/4 Nucleosil 100/5 C18 precolumn, from Macherey-Nagel, Düren, Germany). For this, 60 μl of the test mixture was injected into the HPLC sample injection point and the column was then eluted at a flow rate of 1 ml/min with the following gradient:
Mobile Phase B: 100% acetonitrile+0.5M H3PO4
All the peptides were detected by absorption at 214 nm and by fluorescence with an excitation wavelength of 328 nm and an emission wavelength of 393 nm.
Upon enzymatic cleavage of the peptide, the fluorophore (=Mca) and the quencher end up in different peptide fragments, which reduces the effectiveness of the quench. […] The increasing fluorescence signal (corresponds to the area, A) of the HPLC peak of the peptide with the non-quenched Mca fluorophore is used for the further calculations. This signal was compared for samples with (=Ainhib) and without (=Acontrol) test substance of Formula I, and the value “% inhibition” was calculated on the basis of the respective peak areas according to the following formula: % inhibition=100*(1−Ainhib/Acontrol)
All the samples were measured in duplicates and average values were calculated therefrom. A standard inhibitor (10 nM thiorphan) and a solvent control (0.1% DMSO) were likewise measured as quality controls on each run. In this test model the test substances of Formula I listed in the following Table 1 had the IC50 values given below: […]

[3] = tested on: maximal SAP response to Big-ET; assay: In vivo i.v. potency (ID50) to inhibit maximal SAP response to Big-ET in anesthetized rats; parameters: species or system Rats (Sprague-Dawley); details: Rattus norvegicus, iv, dose at which the pressor effect of Big-ET was suppressed by 50%
Experimental: Rats (Sprague-Dawley, CRLD=Charles River) were anaesthetised with 1 ml/kg Rompun/Ketavet 1:1. A pressure transducer (Statham) was inserted into the carotid artery to measure blood pressure.
For intravenous testing, one jugular vein was cannulated for administering the substance, and the other for administering Big-ET-1. […] Five minutes later, 0.5 nmol/kg Big-ET-1 was infused over a period of one minute. SAP, DAP, and heart rate were measured before administration of the substance, then before administration of Big-ET, and subsequently every five minutes after Big-ET administration over a period of 30 minutes using the pressure transducer in known manner. The maximum Big-ET-induced increase in blood pressure was calculated from the measured values as the difference between the value measured at the moment of maximum development of the Big-ET action (typically after 5 min) and the value measured before Big-ET infusion. The dose at which the pressor effect of Big-ET was suppressed by 50% (ID50) was estimated from the inhibitory effects observed over the range of dosages tested (n>5 rats for each dose).
The intravenous potency of the test compounds of Formula I (given as ID50 values) to inhibit the maximal SAP response to Big ET in anesthetized rats is set forth in the following Table 3b: […]

[4] = target: T2, His6-tagged hSEP ectodomain (Homo sapiens, UniProt Q495T6); assay: In vitro investigation of the hSEP-inhibitory action (fluorescence-quenched Big-ET-1 analogue, HPLC); format: biochemical
T2 construct: His6-tagged hSEP ectodomain; His6; purchased Innogenetics, Ghent, Belgium
T2 sequence (Q495T6 49-779 limits assumed): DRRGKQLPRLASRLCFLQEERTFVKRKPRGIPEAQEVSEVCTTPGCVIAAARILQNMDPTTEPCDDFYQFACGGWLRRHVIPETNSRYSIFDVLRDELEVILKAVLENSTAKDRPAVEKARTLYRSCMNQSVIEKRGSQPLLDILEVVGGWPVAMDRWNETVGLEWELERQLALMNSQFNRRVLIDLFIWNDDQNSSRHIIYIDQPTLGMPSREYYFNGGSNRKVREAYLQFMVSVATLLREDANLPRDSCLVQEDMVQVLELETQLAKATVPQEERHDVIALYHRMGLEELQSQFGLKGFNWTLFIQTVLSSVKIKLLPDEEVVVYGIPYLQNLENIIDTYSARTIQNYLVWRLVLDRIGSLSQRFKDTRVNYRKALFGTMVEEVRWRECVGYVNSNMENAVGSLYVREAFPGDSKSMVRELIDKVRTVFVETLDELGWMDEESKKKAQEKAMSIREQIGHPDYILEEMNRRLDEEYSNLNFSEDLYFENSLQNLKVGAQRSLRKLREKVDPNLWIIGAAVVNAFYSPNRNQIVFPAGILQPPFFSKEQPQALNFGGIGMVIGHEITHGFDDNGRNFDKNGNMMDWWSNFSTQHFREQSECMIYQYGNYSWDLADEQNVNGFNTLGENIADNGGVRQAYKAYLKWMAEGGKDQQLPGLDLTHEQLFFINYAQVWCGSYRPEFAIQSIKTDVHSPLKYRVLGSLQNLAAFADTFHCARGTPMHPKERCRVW
Experimental: 2. In Vitro Investigation of the hSEP-Inhibitory Action of the Substances
In this test, the measure of the inhibitory activity of the substances which was determined was their IC50 value. The IC50 value of a test substance having enzyme-inhibitory activity is that concentration of the test substance at which 50% of the enzymatic activity of the hSEP is blocked.
The test and the HPLC procedure were carried out analogously to the manner set forth above for determining the in vitro inhibitory action of the test substances on NEP. 10 nM phosphoramidon served as standard inhibitor in the HPLC procedure. In this test model the test substances of Formula I listed in the following Table 2 had the IC50 values given below: […]

[5] = Plasma protein binding, equilibrium dialysis, rat plasma; format: in vitro ADME; details: rat plasma (10% for routine testing), 37° C., pH 7.4, 10% plasma (100% for low binders), read-out: % bound (rat plasma) (converted)
Experimental: (§1) Plasma protein binding of the test substances of Formula I was measured using a validated equilibrium dialysis method. The dialysis cells consisted of two halves separated by a semi-permeable membrane slightly tensioned in between. […] Before being used, the membranes were re-hydrated by soaking in water followed by the dialysis buffer. Plasma (10% for routine testing, and 100% for compounds found to have a low protein binding) was heated to 37° C. and adjusted to pH 7.4 before use. 5 μM test compound solutions (final dimethylsulfoxide concentration 0.5%) were prepared in isotonic phosphate buffer containing rat or human plasma. The plasma-containing solution was on one side of the membrane, and the plasma-free on the other. Incubations were performed overnight (10% plasma assay), or for 2 hours (100% plasma assay) in triplicate. The cells were mounted in a drive unit that rotated the cells and ensured a uniform equilibrium was obtained. The equilibrium was temperature controlled by the drive unit being immersed in a water bath at 37° C. At the end of the equilibration time, the cells were emptied. The solutions for each batch of compounds were combined into two groups (plasma-free and plasma-containing) then cassette analysed by LC-MS/MS using two sets of calibration standards for plasma-free (7 points) and plasma-containing solutions (6 points). The percentage of protein bound compound was calculated as follows: [formula] PC=sample concentration in protein containing side; PF=sample concentration in protein free side;

[6] = Plasma protein binding, equilibrium dialysis, human plasma; format: in vitro ADME; details: human plasma (10% for routine testing), 37° C., pH 7.4, 10% plasma (100% for low binders), read-out: % bound (human plasma) (converted)
Experimental: as §1

T1 sequence (P08473 52-750 limits assumed): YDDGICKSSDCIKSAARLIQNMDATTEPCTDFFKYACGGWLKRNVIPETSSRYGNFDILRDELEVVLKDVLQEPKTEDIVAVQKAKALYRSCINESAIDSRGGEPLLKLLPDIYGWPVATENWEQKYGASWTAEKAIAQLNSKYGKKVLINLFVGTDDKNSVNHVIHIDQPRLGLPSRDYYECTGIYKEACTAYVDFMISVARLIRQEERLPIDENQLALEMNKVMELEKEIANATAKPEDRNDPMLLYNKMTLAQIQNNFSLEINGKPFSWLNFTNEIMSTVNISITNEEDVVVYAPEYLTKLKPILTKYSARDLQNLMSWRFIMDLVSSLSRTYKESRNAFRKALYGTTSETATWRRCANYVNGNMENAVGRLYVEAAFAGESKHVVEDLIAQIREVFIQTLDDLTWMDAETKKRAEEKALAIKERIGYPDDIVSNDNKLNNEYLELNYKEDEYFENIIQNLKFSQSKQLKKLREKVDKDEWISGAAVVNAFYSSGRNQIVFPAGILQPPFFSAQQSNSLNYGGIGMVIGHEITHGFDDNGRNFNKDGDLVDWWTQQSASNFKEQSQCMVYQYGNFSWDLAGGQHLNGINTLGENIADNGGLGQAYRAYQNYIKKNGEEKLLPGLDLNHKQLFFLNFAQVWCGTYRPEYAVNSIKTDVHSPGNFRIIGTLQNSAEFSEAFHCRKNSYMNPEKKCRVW

SMILES: CCN(CCCN)C(=O)CC(CC1(C(=O)NC2CCc3ccccc3N(CC(=O)O)C2=O)CCCC1)C(=O)O (racemic) [Example 67, 4-[(3-aminopropyl)(ethyl)amino]-2-{[1-({[1-(carboxymethyl)-2-oxo-2,3,4,5-tetrahydro-1H-1-benzazepin-3-yl]amino}carbonyl)cyclopentyl]methyl}-4-oxobutanoic acid]
- change in vivo at 10 µmol/kg [1]: -109%
- IC50 [2]: 15 nM
- ED50 [3]: 0.5 µmol/kg
- IC50 [4]: 12 nM

SMILES: CNCCN(C)C(=O)CC(CC1(C(=O)NC2CCc3ccccc3N(CC(=O)O)C2=O)CCCC1)C(=O)O (racemic) [Example 68, 2-{[1-({[1-(carboxymethyl)-2-oxo-2,3,4,5-tetrahydro-1H-1-benzazepin-3-yl]amino}carbonyl)cyclopentyl]methyl}-4-{methyl[2-(methylamino)ethyl]amino}-4-oxobutanoic acid]
- change in vivo at 10 µmol/kg [1]: -108%
- ED50 [3]: 0.7 µmol/kg

SMILES: CN(CCCCN)C(=O)CC(CC1(C(=O)NC2CCc3ccccc3N(CC(=O)O)C2=O)CCCC1)C(=O)O (racemic) [Example 75, 4-[(4-aminobutyl)(methyl)amino]-2-{[1-({[1-(carboxymethyl)-2-oxo-2,3,4,5-tetrahydro-1H-1-benzazepin-3-yl]amino}carbonyl)cyclopentyl]methyl}-4-oxobutanoic acid]
- change in vivo at 3 µmol/kg [1]: -52%
- ED50 [3]: 0.1 µmol/kg

SMILES: CN(CCCCCN)C(=O)CC(CC1(C(=O)NC2CCc3ccccc3N(CC(=O)O)C2=O)CCCC1)C(=O)O (racemic) [Example 78, 4-[(5-aminopentyl)(methyl)amino]-2-{[1-({[1-(carboxymethyl)-2-oxo-2,3,4,5-tetrahydro-1H-1-benzazepin-3-yl]amino}carbonyl)cyclopentyl]methyl}-4-oxobutanoic acid]
- change in vivo at 3 µmol/kg [1]: -82%
- ED50 [3]: < 1 µmol/kg

SMILES: CC(C)N(C)C(=O)CC(CC1(C(=O)N[C@H]2CCc3ccccc3N(CC(=O)O)C2=O)CCCC1)C(=O)O (single isomer, unassigned) [Example 63]
- IC50 [2]: 9 nM
- fraction unbound at 5 μM [5]: 0.31
- ED50 [3]: 0.08 µmol/kg
- fraction unbound at 5 μM [6]: 0.6

SMILES: CCOC(=O)C(CC(=O)NCCCO)CC1(C(=O)N[C@H]2CCc3ccccc3N(CC(=O)O)C2=O)CCCC1 (stereo in doubt) [Example 8]
- change in vivo at 10 µmol/kg [1]: -113%
- ED50 [3]: 0.2 µmol/kg
